Results on 2 compounds are retold here after US20120071628A1, “TOPICAL THERAPEUTIC AGENT FOR OPHTHALMIC DISEASES COMPRISING COMPOUND CAPABLE OF BINDING SPECIFICALLY TO DNA SEQUENCE” (NIHON UNIVERSITY, priority 2009, published 2012).

Structures are written as SMILES.

For one data set, the system named is TGF-β1 protein. Briefly: Immunohistochemistry test of rat eyes after corneal injury. The format is in vivo. The settings on record: day 1 after alkali injury. As to the method:
At 1 hour and on 1, 4, and 7 days after induction of a corneal injury in rats, the eyeball was isolated and embedded in the OCT compound (Miles, Elkhart, Ind., USA.). The frozen section was sliced into sections having a thickness of 5 μm, and histological and immunohistological analyses were performed. Using rabbit-anti-human Tgf-β1 polyclonal antibody (Yanaihira, Japan, catalog No. Y241) as a primary antibody, the sample was diluted 1000-fold before use. 4 nontrauma corneas as normal controls were used to compare rTGF-β (GBP1201) PIP-treated eyes and mock-treated eyes. To determine the specificity of the primary antibody, a negative control was also included.

Data set [1] deals with biotin-labeled double-stranded oligo DNA (target DNA, rat TGF-β1 promoter). The data set is described as follows: Biacore assay of binding affinity for target DNA. The following applies: surface plasmon resonance. The source says: Biacore assay can measure binding affinity of rTGF-β (GBP1201) PIP for a target DNA in real time.
Biotin-labeled oligo DNA were annealed to form a double strand, and the double strand was immobilized on a sensor chip SA (Biacore, Uppsala, Sweden) on which streptavidin was immobilized beforehand.
Dynamics of interactions of rTGF-β (GBP1201) PIP, mismatch (FIG. 41 [a]) and biotin-labeled oligo DNA were investigated using Biacore 2000 System (Biacore, Uppsala, Sweden). Data was processed according to the protocol recommended by Biacore2000.
A general note: SPR reads the build-up and loss of mass on a sensor chip optically.

Data set [2] deals with double-stranded oligo DNA containing the AP-1 binding site that corresponds to the TGF-β1 promoter. Briefly: Gel shift assay of PIP binding to target DNA. Details: species or system rat. As for the experimental part:
For the gel shift assay, a fluorescence-labeled match oligo DNA containing the AP-1 binding site that corresponds to the TGF-β1 promoter was synthesized. Sense and antisense oligo DNA suitable for the test were annealed to prepare a double-stranded oligo DNA. 1 μM DNA was incubated with 50 μM PIP compound at 37° C. for 1 hour, separated by electrophoresis using 20% polyacrylamide gel, and visualized using a fluorescence image analyzer LAS-3000 (Fuji Film, Tokyo, Japan).

Data set [3] deals with alkali burn rat model (cornea). The data set is described as follows: Corneal opacity, ulceration and corneal defect in rats with alkali burn. It counts as in vivo. The settings on record: 1 μmol/L, 5 μl instilled once daily for 1 week, versus 0.1% aqueous acetic acid control. As to the method: 8-week-old male Wister rats were prepared and anesthetized with diethyl ether. Then, 5 μl of 0.5 N sodium hydroxide solution was administered […] to adult Wister rats by instilling the central part of the cornea of both eyes or one eye by a common method according to Saika et al. (Am J. Patho., 2005). At 10 seconds after instillation, the alkali liquid was washed off from the cornea surface with 10 ml of phosphate buffer to prepare an alkali burn rat model.
At 1 hour after a trauma due an alkali burn was induced (9.00 am), and 1 μmol/L rTGF-β (GBP1201) PIP compound and 1 μmol/L of a mixture of rMMP9AP1 and rMMP9NFkB in 1:1 (hereinafter, also referred to as rMMP9PIP) dissolved in 5 μl of 0.1% acetic acid hydrate were administered to the rat right eye by dropping in the central part of the cornea at 9.00 am once daily every day for 1 week. As a control, 0.1% aqueous acetic acid solution was administered to the left eye in the same manner as described above. The same experiment was performed in 6 rats. The reason why 0.1% aqueous acetic acid solution was used was that the PIP compound of the present invention was dissolved in this aqueous solution. Furthermore, to prevent the occurrence of an infection, antibiotic eye ointment Tarivid Ophthalmic Ointment 0.3% (Santen Pharmaceutical Co., Ltd.) was administered at 5.00 pm every day. Furthermore, the drug was administered to 2 rats in which an alkali burn was not induced as controls. Rats were observed every day at the time of instillation and application of an eye ointment, and the cornea was observed and photographed every evening. […] By utilizing this property, the corneal injury was evaluated according to the cornea fluorescein test using a FLUORES test paper (Showa Yakuhin Kako Co., Ltd.) that can test the corneal condition.
The cornea was observed until complete reepithelialization was observed. When the fluorescence staining of the cornea was not observed, complete reepithelialization was defined.
Transparency of the cornea was evaluated as follows. […]

The subject of the next data set is rTGF-β1 promoter. The data set is described as follows: Luciferase reporter plasmid assay of rTGF-β1 promoter expression induced by PMA. It counts as cell-based, rat. The following applies: luciferase reporter plasmid with rTGF-β1 promoter region. From the text:
The reporter gene expression induced by adding PMA was inhibited by adding GBP1201 and GBP1203 but not by the mismatch polyamide.

Data set [4] deals with nucleus of cells in the cornea. The data set is described as follows: Distribution of FITC-labeled polyamide in the cornea of alkali injury model rats. The format is in vivo, rat. The settings on record: 1 hour after administration, 1 μmol/L, 5 μl instilled. As to the method:
The synthesized FITC polyamide was dissolved in 0.1% acetic acid solution, the concentration was adjusted to 1 μmol/L, 5 μl of the solution was dropped on the central part of the cornea of 8 alkali injury model rats at 1 hour after induction of a trauma. Two animals each were euthanized at 1 hour and on 1, 4, and 7 days after instillation of the FITC polyamide. The eyeball was isolated, embedded in the OCT compound (Miles, Elkhart, Ind., USA) in a plastic container for a frozen section sample, frozen with liquid nitrogen, and stored in an ultra-low temperature refrigerator at −80° C. The sample was thinly sliced into a section of 5 μm and observed under a fluorescence microscope (Olympus Corporation).

Turning to `CC(=O)Nc1cc(C(=O)Nc2cc(C(=O)NCCC(=O)Nc3cn(C)c(C(=O)Nc4cc(C(=O)Nc5cc(C(=O)NCCCC(=O)Nc6cn(C)c(C(=O)Nc7cc(C(=O)Nc8cc(C(=O)NCCC(=O)Nc9cn(C)c(C(=O)Nc%10cn(C)c(C(=O)NCCC(=O)NCCCN(C)C)n%10)n9)n(C)c8)n(C)c7)n6)n(C)c5)n(C)c4)n3)n(C)c2)n(C)c1` [rTGF-β (GBP1201)], the “TGF-β1 immunohistology versus controls” value in the data set on TGF-β1 protein is reported as “No immunohistological difference”. In data set [1], the “binding affinity for target DNA relative to the mismatch polyamide” value is recorded as 149 times. Moreover, the Kd – broadly, the constant that tells how readily two partners part at equilibrium – in data set [1] (target DNA, 0-300 nM) was found to be 5.12 nM. Moreover, in data set [2] (1 μM DNA, 50 μM PIP compound, 37° C., 1 hour), the “binding to the target DNA (gel shift)” value is recorded as “bound specifically to the target DNA”. The “binding to the mismatch polyamide (gel shift (so in the source))” value in data set [2] (gel shift assay) was “did not bind to the mismatch polyamide”. Further, the “healing of corneal opacity and ulceration” value in data set [3] is listed as “significantly better than the control”. Besides, the “healing of corneal defect (severity of corneal defect)” value in data set [3] (listed as TGF-β (GBP1201) PIP) is listed as “significantly earlier (approximately twice as fast) than the control”; in data set [3] (listed as rTGF-β (GBP1201) PIP compound) it was “significantly better than the control”. The “reporter gene expression induced by adding PMA” value with rTGF-β1 promoter was “inhibited”.

Consider `CN(C)CCCNC(=O)CCNC(=O)c1nc(NC(=O)c2nc(NC(=O)CCNC(=O)c3cc(NC(=O)c4cc(NC(=O)c5nc(NC(=O)CCCNC(=O)c6cc(NC(=O)c7cc(NC(=O)c8nc(NC(=O)CCNC(=O)c9cc(NC(=O)c%10cc(NC(=O)CCNC(=S)Nc%11ccc%12c(c%11)C(=O)OC%12%11c%12ccc(O)cc%12Oc%12cc(O)ccc%12%11)cn%10C)cn9C)cn8C)cn7C)cn6C)cn5C)cn4C)cn3C)cn2C)cn1C` [rTGF-β (GBP1201) FITC], for which the “FITC fluorescence in the cornea” value in data set [4] is “green FITC fluorescence is observed in the corneal epithelium and in the nucleus of interstitial cells in the cornea”.
